Assay results as given in article PMC7365253 (Journal of the American Chemical Society, 2020).
pEC50: −log10 of the molar value.

Target: Kelch-like ECH-associated protein 1 (KEAP1) (Homo sapiens, UniProt Q14145)
Format: cell-based

Chain of Kelch-like ECH-associated protein 1 (KEAP1) (Q14145 whole entry): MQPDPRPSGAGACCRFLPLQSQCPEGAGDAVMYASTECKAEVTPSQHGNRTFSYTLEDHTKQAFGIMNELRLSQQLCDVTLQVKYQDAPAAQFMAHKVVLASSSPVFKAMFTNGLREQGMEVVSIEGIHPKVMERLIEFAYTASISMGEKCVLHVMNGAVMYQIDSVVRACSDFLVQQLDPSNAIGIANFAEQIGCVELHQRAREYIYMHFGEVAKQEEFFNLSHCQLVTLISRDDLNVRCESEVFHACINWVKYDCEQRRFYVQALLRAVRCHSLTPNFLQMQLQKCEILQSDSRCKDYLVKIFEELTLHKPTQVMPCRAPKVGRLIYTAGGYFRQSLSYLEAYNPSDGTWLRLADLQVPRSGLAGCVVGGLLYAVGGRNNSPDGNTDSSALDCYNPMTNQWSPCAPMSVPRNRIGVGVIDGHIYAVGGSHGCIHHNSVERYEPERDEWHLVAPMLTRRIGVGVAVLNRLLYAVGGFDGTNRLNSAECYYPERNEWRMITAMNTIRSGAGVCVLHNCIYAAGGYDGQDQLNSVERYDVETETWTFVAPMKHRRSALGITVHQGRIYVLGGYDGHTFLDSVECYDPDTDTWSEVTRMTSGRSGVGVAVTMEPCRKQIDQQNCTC

Cc1cc(C)c(C#N)c(S(C)(=O)=O)n1 [compound 1, 2-methylsulfony-4,6-diemthyl-nicotinonitrile]
pEC50: 5.96
